Tests used:
[1] = Cytotoxicity against human ScienCell 2320 cells assessed as reduction in cell viability at 1 to 10 uM incubated for 72 hrs by MTT assay; assay type: cell-based; conditions: sciencell 2320, 72 h
[2] = Reduction in UVB radiation-induced MMP1 secretion in human MCTT MC1233 cells at 10 uM exposed to 144 mJ/cm2 UVB irradiation by ELISA method; assay type: functional; conditions: MCTT MC1233, light or radiation study
[3] = Reduction in MMP1 secretion in human MCTT MC1233 cells at 5 uM by ELISA method; assay type: functional
[4] = Cytotoxicity against human ScienCell 2320 cells exposed to 144 mJ/cm2 UVB irradiation assessed as reduction in cell viability at 1 to 10 uM incubated for 72 hrs by MTT assay; assay type: cell-based; conditions: sciencell 2320, 72 h
[5] = test system: MCTT MC1233; test: Reduction in UVB radiation-induced MMP1 secretion in human MCTT MC1233 cells exposed to 144 mJ/cm2 UVB irradiation by ELISA method; assay type: functional, cell-based
[6] = Reduction in UVB radiation-induced MMP1 secretion in human ScienCell 2320 cells at 10 uM exposed to 144 mJ/cm2 UVB irradiation by ELISA method; assay type: functional; conditions: ScienCell 2320, light or radiation study
[7] = Cytotoxicity against human MCTT MC1233 cells exposed to 144 mJ/cm2 UVB irradiation assessed as reduction in cell viability at 1 to 10 uM incubated for 72 hrs by MTT assay; assay type: cell-based; conditions: mctt mc1233, 72 h
[8] = Reduction in MMP1 secretion in human ScienCell 2320 cells at 10 uM by ELISA method; assay type: functional
[9] = Cytotoxicity against human MCTT MC1233 cells assessed as reduction in cell viability at 1 to 10 uM incubated for 72 hrs by MTT assay; assay type: cell-based; conditions: mctt mc1233, 72 h
[10] = Reduction in MMP1 secretion in human MCTT MC1233 cells at 10 uM by ELISA method; assay type: functional

In the case of `Cc1c2c(cc(O)c1-c1cc(O)cc(=O)o1)C(=O)c1cc3cc(O)cc(O)c3c(O)c1C2=O`, the Activity [1] is reported as “Non-toxic”, the inhibition at 10 µM [2] is reported as 65% and the inhibition at 5 µM [3] is reported as 58%. For the same molecule, the Activity [4] was “Non-toxic”, the inhibition [5] was “Dose-dependent effect” and the inhibition at 10 µM [6] was 99%. The Activity [7] was “Non-toxic”, the inhibition at 10 µM [8] was 99% and the Activity [9] was “Non-toxic”. The inhibition at 10 µM [10] was 83%.
For `Cc1c(-c2cc(O)cc(=O)o2)c(O)cc2cc3c(c(O)c12)C(=O)c1c(O)cc(O)cc1C3=O`, the Activity [1] was “Non-toxic”, the inhibition at 10 µM [2] was 18% and the Activity [4] was “Non-toxic”. The inhibition [5] was “Dose-dependent effect”, the inhibition at 10 µM [6] was 91% and the Activity [7] was “Non-toxic”. For the same molecule, the inhibition at 10 µM [8] was 93% and the Activity [9] was “Non-toxic”.

— ChEMBL document CHEMBL3351666, “Nocatriones A and B, photoprotective tetracenediones from a marine-derived Nocardiopsis sp” (J Nat Prod, 2014)
